In brackets after ≈: the same amount, converted by molar mass.
Key:
Experiment in all cases: ≥ marks a high value that may be exact or a test limit, other limits are often not marked, values filed in µg/mL are converted to µM
[1] = test system: Proteus vulgaris KCTC 2433
[2] = test system: Bacillus subtilis KCTC 1918
[3] = test system: Trichosporon beigelii KCTC 7707
[4] = test system: Staphylococcus aureus KCTC 1621
[5] = test system: Salmonella typhimurium KCTC 1926
[6] = test system: Candida albicans TIMM 1768
[7] = test system: Saccharomyces cerevisiae KCTC 7296
[8] = test system: Bacillus subtilis
[9] = test system: Pseudomonas aeruginosa ATCC 25010
[10] = test system: Enterobacter cloacae ATCC 13047
[11] = test system: Salmonella enterica subsp. enterica serovar Typhimurium ATCC 14028
[12] = test system: Klebsiella pneumoniae ATCC 13882
[13] = test system: Listeria monocytogenes EGD
[14] = test system: Staphylococcus haemolyticus DSM 20263
[15] = test system: Salmonella enterica subsp. enterica serovar Enteritidis ATCC 13076
[16] = test system: Staphylococcus saprophyticus ATCC 19701
[17] = test system: Bacillus cereus ATCC 14579
[18] = test system: Staphylococcus aureus ATCC 29740
[19] = test system: Escherichia coli
[20] = test system: Salmonella enterica subsp. enterica serovar Enteritidis LA5

SMILES	MIC [1] [µM]	MIC [2] [µM]	MIC [3] [µM]	MIC [4] [µM]	MIC [5] [µM]	MIC [6] [µM]	MIC [7] [µM]	MIC [8] [µM]	MIC [9] [µM]	MIC [10] [µM]	MIC [11] [µM]	MIC [12] [µM]	MIC [13] [µM]	MIC [14] [µM]	MIC [15] [µM]	MIC [16] [µM]	MIC [17] [µM]	MIC [18] [µM]	MIC [19] [µM]	MIC [20] [µM]
CC[C@H](C)[C@H](NC(=O)CNC(=O)[C@H](CC(C)C)NC(=O)[C@H](CCCN=C(N)N)NC(=O)[C@H](CCCCN)NC(=O)[C@H](Cc1ccccc1)NC(=O)[C@@H](NC(=O)[C@H](CCCCN)NC(=O)[C@H](CCCCN)NC(=O)[C@H](C)N)C(C)C)C(=O)NCC(=O)N[C@@H](C)C(=O)N[C@H](C(=O)N[C@@H](CC(C)C)C(=O)N[C@@H](Cc1c[nH]c2ccccc12)C(=O)N[C@H](C(=O)N[C@@H](CC(C)C)C(=O)N[C@H](C(=O)N[C@H](C(=O)NCC(=O)O)[C@@H](C)O)[C@@H](C)O)C(C)C)C(C)C [AKKVFKRLGIGAVLWVLTTG]	12.5 (≈ 27 µg/mL)	3.12 (≈ 6.73 µg/mL)	≥ 50	3.12 (≈ 6.73 µg/mL)	0.78 (≈ 1.68 µg/mL)	≥ 50	≥ 50	–	–	–	–	–	–	–	–	–	–	–	–	–
CC[C@H](C)[C@H](NC(=O)[C@H](CCCN=C(N)N)NC(=O)[C@H](CCCCN)NC(=O)[C@@H]1CSSC[C@@H]2NC(=O)[C@H](CCCCN)NC(=O)[C@H](CC(C)C)NC(=O)[C@H](Cc3ccccc3)NC(=O)[C@H](C)NC(=O)[C@@H]3CSSC[C@H](NC(=O)[C@H](CCCCN)NC(=O)CNC(=O)[C@H](CO)NC(=O)[C@H]([C@@H](C)CC)NC(=O)[C@H](CC(C)C)NC(=O)[C@H]([C@@H](C)O)NC(=O)[C@H](CC(C)C)NC(=O)[C@H](CO)NC(=O)[C@@H]4CCCN4C2=O)C(=O)N[C@@H](CO)C(=O)N[C@@H](CCCN=C(N)N)C(=O)N[C@@H](Cc2ccccc2)C(=O)N[C@@H](Cc2ccc(O)cc2)C(=O)N[C@@H](CC(C)C)C(=O)N[C@@H](CSSC[C@H](NC(=O)[C@H](CC(=O)O)NC(=O)[C@H](CO)NC(=O)[C@H](CCCCN)NC(=O)[C@H](CCCN=C(N)N)NC(=O)CN)C(=O)N[C@@H](Cc2ccccc2)C(=O)N[C@@H](CCCN=C(N)N)C(=O)N[C@@H](CCCCN)C(=O)N[C@@H](CO)C(=O)NCC(=O)N[C@@H](Cc2ccccc2)C(=O)N3)C(=O)N1)C(=O)N[C@@H](Cc1c[nH]c2ccccc12)C(N)=O [GRKSDCFRKSGFCAFLKCPSLTLISGKCSRFYLCCKRIW]	–	–	–	–	–	–	–	0.187 (≈ 0.844 µg/mL)	0.244 (≈ 1.1 µg/mL)	0.177 (≈ 0.799 µg/mL)	0.139 (≈ 0.624 µg/mL)	0.0872 (≈ 0.393 µg/mL)	0.236 (≈ 1.06 µg/mL)	0.13 (≈ 0.584 µg/mL)	0.163 (≈ 0.732 µg/mL)	0.147 (≈ 0.662 µg/mL)	0.208 (≈ 0.938 µg/mL)	0.06 (≈ 0.27 µg/mL)	0.256 (≈ 1.15 µg/mL)	0.147 (≈ 0.662 µg/mL)
